Measurements reported in PMC4097020 (Psychopharmacology, 2014).
Read-outs that look alike come from different tables or passages of the source. Marks after values point to notes of the source that are not given here.

What was measured:
human D4.4 receptor = molecular target: T1, human D4.4 receptor (Homo sapiens, UniProt P21917); assay: biochemical; type: binding
T1 sequence (P21917 1-419): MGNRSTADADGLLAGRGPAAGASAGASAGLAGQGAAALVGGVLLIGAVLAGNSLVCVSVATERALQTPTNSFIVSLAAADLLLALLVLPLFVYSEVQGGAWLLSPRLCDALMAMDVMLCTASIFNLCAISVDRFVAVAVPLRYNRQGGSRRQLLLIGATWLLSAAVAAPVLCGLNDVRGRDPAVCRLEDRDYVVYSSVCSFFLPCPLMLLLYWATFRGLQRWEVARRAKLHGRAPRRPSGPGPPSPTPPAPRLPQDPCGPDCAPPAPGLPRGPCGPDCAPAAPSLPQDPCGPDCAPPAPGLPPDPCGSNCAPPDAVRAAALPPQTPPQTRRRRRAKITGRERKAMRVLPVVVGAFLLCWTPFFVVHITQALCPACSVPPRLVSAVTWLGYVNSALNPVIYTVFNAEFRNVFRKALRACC

[1] = molecular target: T2, recombinant human D2 receptor (Homo sapiens, UniProt P14416); assay: biochemical; type: binding
T2 sequence (P14416 whole entry): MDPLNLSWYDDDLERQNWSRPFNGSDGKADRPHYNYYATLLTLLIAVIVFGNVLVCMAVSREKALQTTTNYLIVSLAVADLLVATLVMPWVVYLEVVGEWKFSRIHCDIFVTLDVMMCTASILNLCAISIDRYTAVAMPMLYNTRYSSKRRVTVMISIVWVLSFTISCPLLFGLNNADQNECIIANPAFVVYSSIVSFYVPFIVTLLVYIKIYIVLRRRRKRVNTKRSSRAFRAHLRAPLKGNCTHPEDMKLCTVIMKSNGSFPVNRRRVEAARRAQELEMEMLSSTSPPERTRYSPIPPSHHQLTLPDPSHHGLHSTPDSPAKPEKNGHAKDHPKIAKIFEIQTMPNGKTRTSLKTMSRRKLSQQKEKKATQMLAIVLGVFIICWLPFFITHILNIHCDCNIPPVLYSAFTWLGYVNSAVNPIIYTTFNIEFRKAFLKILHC

[2] = tested on: nontransfected HEK-293 cells; assay: IP-1 accumulation in nontransfected HEK-293 cells; type: cell-based, human; conditions: (+)mefloquine 100 μM, 5-HT 1 μM, LSD 10 nM
[3] = molecular target: T2, recombinant human D2 receptor; assay: cell-based; type: cell-based
[4] = molecular target: T3, recombinant human D3 receptor (Homo sapiens, UniProt P35462); conditions: for agonist activity at hD3 receptor, mitogenesis (in words): compared to quinpirole
T3 sequence (P35462 whole entry): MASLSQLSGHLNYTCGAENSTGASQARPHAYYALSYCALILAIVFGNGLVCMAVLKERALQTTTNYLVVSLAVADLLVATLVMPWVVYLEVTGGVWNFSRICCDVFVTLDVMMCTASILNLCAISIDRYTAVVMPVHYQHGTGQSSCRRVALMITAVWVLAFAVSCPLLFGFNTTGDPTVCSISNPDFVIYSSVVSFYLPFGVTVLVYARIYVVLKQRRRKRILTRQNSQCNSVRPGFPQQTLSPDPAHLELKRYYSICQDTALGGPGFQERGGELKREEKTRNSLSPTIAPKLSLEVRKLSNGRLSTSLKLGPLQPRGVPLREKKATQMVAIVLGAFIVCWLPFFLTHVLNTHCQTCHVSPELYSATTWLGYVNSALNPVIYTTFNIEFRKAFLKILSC

h5-HT2A receptor [5] = molecular target: T4, h5-HT2A receptor (Homo sapiens, UniProt P28223); type: binding
T4 sequence (P28223 whole entry): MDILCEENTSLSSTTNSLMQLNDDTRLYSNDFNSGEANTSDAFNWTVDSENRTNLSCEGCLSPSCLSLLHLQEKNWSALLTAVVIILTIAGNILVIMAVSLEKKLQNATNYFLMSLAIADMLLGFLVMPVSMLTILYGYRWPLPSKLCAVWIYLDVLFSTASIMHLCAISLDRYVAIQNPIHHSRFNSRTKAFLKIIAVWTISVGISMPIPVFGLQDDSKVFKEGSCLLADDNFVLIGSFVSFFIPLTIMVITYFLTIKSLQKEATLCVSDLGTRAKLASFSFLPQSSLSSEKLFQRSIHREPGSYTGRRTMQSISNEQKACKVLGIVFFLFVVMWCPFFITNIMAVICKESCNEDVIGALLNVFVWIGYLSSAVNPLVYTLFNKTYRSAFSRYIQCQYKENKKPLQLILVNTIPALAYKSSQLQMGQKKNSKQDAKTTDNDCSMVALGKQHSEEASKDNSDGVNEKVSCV

h5-HT2A receptor [6] = molecular target: T4, h5-HT2A receptor; assay: IP-1 formation in HEK-h5-HT2A cells; type: cell-based; conditions: for agonist character at h5-HT2A receptor, IP-1 formation (in words): compared to 5-HT
h5-HT2A receptor [7] = molecular target: T4, h5-HT2A receptor; type: binding; remark: listed apart in the source
[8] = molecular target: recombinant human 5-HT2A receptor (Homo sapiens, UniProt P28223); assay: [125I]DOI binding to HEK-h5-HT2A cell membranes
Chain of recombinant human 5-HT2A receptor (P28223 whole entry): as above

[9] = molecular target: T5, recombinant human 5-HT1A receptor (Homo sapiens, UniProt P08908); assay: [3H]8-OH-DPAT binding to HEK-h5-HT1A cell membranes
T5 sequence (P08908 1-422): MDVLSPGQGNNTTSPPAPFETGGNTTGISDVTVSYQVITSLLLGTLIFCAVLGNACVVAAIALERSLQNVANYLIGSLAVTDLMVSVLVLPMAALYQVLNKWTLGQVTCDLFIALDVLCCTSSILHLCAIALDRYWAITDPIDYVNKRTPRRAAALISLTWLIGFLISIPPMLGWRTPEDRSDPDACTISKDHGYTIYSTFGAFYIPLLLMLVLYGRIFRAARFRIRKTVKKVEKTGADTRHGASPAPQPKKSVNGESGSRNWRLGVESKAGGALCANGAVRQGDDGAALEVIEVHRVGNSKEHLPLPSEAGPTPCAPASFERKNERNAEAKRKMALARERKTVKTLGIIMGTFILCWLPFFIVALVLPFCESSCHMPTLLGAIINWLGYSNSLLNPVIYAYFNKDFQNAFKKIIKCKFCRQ

[10] = molecular target: T3, recombinant human D3 receptor; assay: [3H]YM 09151-2 binding to CHOp-D3 cells
[11] = molecular target: T6, recombinant human norepinephrine transporter (Homo sapiens, UniProt P23975); assay: biochemical; type: binding
T6 sequence (P23975 whole entry): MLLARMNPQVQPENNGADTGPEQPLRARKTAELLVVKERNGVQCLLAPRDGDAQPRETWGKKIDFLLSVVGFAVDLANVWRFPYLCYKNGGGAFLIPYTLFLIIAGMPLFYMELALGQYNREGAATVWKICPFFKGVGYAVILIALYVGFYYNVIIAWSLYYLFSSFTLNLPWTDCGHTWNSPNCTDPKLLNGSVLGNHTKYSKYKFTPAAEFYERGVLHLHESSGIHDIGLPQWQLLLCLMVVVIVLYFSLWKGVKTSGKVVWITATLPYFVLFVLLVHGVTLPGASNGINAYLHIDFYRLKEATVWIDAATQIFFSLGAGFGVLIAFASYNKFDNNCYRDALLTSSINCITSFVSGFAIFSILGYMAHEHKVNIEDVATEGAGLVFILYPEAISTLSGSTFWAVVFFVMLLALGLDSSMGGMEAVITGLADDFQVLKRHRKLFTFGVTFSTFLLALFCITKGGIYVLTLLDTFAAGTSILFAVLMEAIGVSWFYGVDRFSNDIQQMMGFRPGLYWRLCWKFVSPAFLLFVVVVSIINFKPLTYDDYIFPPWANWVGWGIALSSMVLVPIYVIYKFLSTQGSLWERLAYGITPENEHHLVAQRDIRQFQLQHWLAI

[12] = molecular target: recombinant human D1 receptor (Homo sapiens, UniProt P21728); assay: [3H]SCH23390 binding to LhD1 cells; conditions: read-out: D1 [3H]SCH23390 Ki (nM) ± SEM
Chain of recombinant human D1 receptor (P21728 whole entry): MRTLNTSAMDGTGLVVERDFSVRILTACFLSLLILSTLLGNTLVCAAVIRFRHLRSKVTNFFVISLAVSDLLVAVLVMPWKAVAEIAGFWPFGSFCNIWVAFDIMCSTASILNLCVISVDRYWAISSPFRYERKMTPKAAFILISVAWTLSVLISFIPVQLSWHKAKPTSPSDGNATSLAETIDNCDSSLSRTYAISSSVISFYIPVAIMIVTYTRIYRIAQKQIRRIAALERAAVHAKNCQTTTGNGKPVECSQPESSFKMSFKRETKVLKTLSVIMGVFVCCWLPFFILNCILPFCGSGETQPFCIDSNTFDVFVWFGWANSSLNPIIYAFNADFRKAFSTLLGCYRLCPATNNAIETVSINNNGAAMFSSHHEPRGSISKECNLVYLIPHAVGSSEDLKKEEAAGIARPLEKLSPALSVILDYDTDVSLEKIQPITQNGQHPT

[13] = molecular target: T6, recombinant human norepinephrine transporter; assay: cell-based
[14] = molecular target: T7, recombinant human dopamine transporter (Homo sapiens, UniProt Q01959); assay: [3H]dopamine uptake by HEK-hDAT cells; type: cell-based
T7 sequence (Q01959 whole entry): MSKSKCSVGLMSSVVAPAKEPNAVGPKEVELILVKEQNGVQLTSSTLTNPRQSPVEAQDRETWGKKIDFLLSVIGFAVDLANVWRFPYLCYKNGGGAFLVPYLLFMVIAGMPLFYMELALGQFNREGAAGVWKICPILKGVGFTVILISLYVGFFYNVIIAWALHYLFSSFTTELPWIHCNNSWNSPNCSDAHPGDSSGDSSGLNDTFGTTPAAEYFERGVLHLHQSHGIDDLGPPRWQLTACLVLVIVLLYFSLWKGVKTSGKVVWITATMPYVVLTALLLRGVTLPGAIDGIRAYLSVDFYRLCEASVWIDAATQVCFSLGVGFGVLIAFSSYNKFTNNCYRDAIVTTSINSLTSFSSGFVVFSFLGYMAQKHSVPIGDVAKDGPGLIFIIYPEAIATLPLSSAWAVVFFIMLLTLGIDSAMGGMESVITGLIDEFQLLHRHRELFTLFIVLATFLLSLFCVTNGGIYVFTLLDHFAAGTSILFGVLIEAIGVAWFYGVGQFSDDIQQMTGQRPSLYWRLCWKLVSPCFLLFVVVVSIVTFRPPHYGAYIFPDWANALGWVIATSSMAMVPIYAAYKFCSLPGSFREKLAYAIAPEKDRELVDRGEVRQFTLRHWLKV

[15] = molecular target: T7, recombinant human dopamine transporter; assay: [125I]RTI-55 binding to HEK-hDAT cells
[16] = molecular target: T8, recombinant human 5-HT2C receptor (Homo sapiens, UniProt P28335); assay: biochemical; type: binding
T8 sequence (P28335 33-458): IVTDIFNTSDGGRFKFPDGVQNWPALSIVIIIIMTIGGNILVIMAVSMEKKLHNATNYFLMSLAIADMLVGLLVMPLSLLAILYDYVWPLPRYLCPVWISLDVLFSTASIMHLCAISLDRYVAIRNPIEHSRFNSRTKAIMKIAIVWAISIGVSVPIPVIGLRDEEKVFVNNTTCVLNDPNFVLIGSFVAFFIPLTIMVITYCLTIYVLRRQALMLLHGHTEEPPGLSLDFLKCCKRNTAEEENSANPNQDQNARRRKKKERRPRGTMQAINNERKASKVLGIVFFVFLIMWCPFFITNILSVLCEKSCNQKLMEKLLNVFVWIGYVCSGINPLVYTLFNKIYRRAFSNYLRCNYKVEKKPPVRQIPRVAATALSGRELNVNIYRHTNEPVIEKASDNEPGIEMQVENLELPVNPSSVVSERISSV

h5-HT2C receptor = molecular target: T9, h5-HT2C receptor (Homo sapiens, UniProt P28335); assay: cell-based
T9 sequence (P28335 33-458): T8 sequence (P28335 33-458)

[17] = prophylactic use; from 8.7 to 14 mg/kg with free/whole brain ratio […]
[18] = varies by preparation, ref Wiedekam et al., 1998, cited from earlier work
[19] = read-out: D4.4 [3H]YM 09151-2 Ki, in μM
[20] = read-out: D2 [3H]YM 09151-2 Ki, in μM
[21] = read-out: h5-HT2C [125I]DOI Ki (nM) ± SEM, HEK-h5-HT2C membranes

## CCN(CC)CCCC(C)Nc1ccnc2cc(Cl)ccc12 (racemic) [Chloroquine, (RS)-N′-(7-chloroquinolin-4-yl)-N, N-diethyl-pentane-1,4-diamine]
Human D4.4 receptor
  Ki: > 10 µM

## OC(c1cc(C(F)(F)F)nc2c(C(F)(F)F)cccc12)C1CCCCN1 (single isomer, unassigned; (-)) [(−)-Mefloquine]
Human D4.4 receptor; [19]
  Ki: > 10 µM
[1]; [20]
  Ki: > 10 µM

## NCCc1c[nH]c2ccc(O)cc12 [5-HT, serotonin]
[2]
  effect on IP-1 accumulation in nontransfected cells (in words): no effect

## O[C@H](c1cc(C(F)(F)F)nc2c(C(F)(F)F)cccc12)[C@@H]1CCCCN1 [(+)-Mefloquine]
Human D4.4 receptor; [19]
  Ki: > 10 µM
[3]; against quinpirole
  antagonist activity at D2 receptor, mitogenesis (in words): no antagonist activity
[3]; compared to quinpirole
  agonist activity at hD2 receptor, mitogenesis (in words): no agonist activity
[4]; against quinpirole
  antagonist activity at D3 receptor, mitogenesis (in words): fully antagonized
[4]; antagonism of quinpirole (30 nM)-stimulated mitogenesis
  D3 mitogenesis % inhibition: 97.3 ± 2.7%
[4]
  agonist activity at hD3 receptor, mitogenesis (in words): no agonist activity
[2]
  effect on IP-1 accumulation in nontransfected cells (in words): no effect
[1]; [20]
  Ki: > 10 µM

## CC(C)(C)[C@]1(O)CCN2C[C@H]3c4ccccc4CCc4cccc(c43)[C@@H]2C1 [Butaclamol]
[3]; read-out: D2 mitogenesis % inhibition
  inhibition at 0.03 µM: 98.1 ± 1.9%

## CN(C)CCc1c[nH]c2ccccc12 [DMT, N,N-dimethyltryptamine]
h5-HT2A receptor [5]
  Ki: 175 ± 42 nM
h5-HT2A receptor [6]
  EC50: 227 ± 64 nM
  agonist character at h5-HT2A receptor, IP-1 formation (in words): partial agonist
h5-HT2A receptor [7]
  Ki: 53 ± 10 nM

## COc1cc(CC(C)N)c(OC)cc1C (centres unmarked) [DOM, 2,5-dimethoxy-4-methylamphetamine]
h5-HT2A receptor [5]
  Ki: 13.7 ± 6 nM
h5-HT2A receptor [5]; h5-HT2A, Ki [3H]ketanserin over Ki [125I]DOI
  Ratio ketanserin/DOI Ki: 6.65 ^**
[8]
  Ki: 4.3 ± 1.2 nM
h5-HT2A receptor [6]
  EC50: 24.7 ± 8.5 nM
  agonist character at h5-HT2A receptor, IP-1 formation (in words): full agonists
h5-HT2A receptor [7]
  Ki: 2.06 ± 0.52 nM
[9]
  Ki: 14.2 µM

## CCN(CC)C(=O)[C@@H]1C=C2c3cccc4[nH]cc(c34)C[C@H]2N(C)C1 [LSD, lysergic acid diethylamide]
Human D4.4 receptor; read-out: D4.4 [3H]YM 09151-2 Ki (nM) ± SEM
  Ki: 0.33 ± 0.12 µM
[3]
  D2 mitogenesis % stimulation: 47.9 ± 6.2%
  agonist activity at hD2 receptor, mitogenesis (in words): partial agonist
[3]; read-out: D2 mitogenesis EC50 (nM) ± SEM (n)
  EC50: 18.1 nM
[4]
  agonist activity at hD3 receptor, mitogenesis (in words): full agonist
[4]; normalized to the maximal stimulation by quinpirole
  D3 mitogenesis % stimulation: 104.4 ± 6.1%
[4]; read-out: D3 mitogenesis EC50 (nM) ± SEM (n), agonist mode, NC: the data did not converge
  EC50: 48 ± 14 nM
h5-HT2A receptor [6]
  agonist character at h5-HT2A receptor, IP-1 formation (in words): full agonists
[2]
  effect on IP-1 accumulation in nontransfected cells (in words): no effect
[10]; read-out: D3 [3H]YM 09151-2 Ki (nM) ± SEM
  Ki: 27.1 ± 1.3 nM
[11]; read-out: Norepinephrine transporter, inhibition of [125I]RTI-55 binding Ki (nM) ± SEM
  Ki: 5600 nM
[1]; read-out: D2 [3H]YM 09151-2 Ki (nM) ± SEM
  Ki: 0.0388 ± 0.0018 µM
[12]
  Ki: 273 ± 89 nM

## C=C[C@H]1C[N@@]2CC[C@H]1C[C@H]2[C@H](O)c1ccnc2ccc(OC)cc12 [Quinine, (R)-(6-Methoxyquinolin-4-yl)((2S,4S,8R)-8-vinylquinuclidin-2-yl)methanol]
[13]
  IC50: > 10 µM
[14]
  IC50: > 10 µM
[15]
  Ki: > 8.3 µM
[11]
  Ki: > 5500 nM

## C[C@H](N)Cn1ccc2cc(F)c(Cl)cc21 [Ro60-0175]
[16]; [21]
  Ki: 7.3 ± 1.6 nM

## Cc1cc2c(cc1Cl)N(C(=O)Nc1ccc(Oc3cccnc3C)nc1)CC2 [SB242087]
[16]
  Ki: 11.4 ± 4 nM
[8]
  Ki: 120 ± 32 nM
h5-HT2C receptor
  IC50: 0.167 ± 0.061 nM
  h5-HT2C IP1 formation % inhibition: 93.7 ± 5.5%
[9]
  Ki: > 9.3 µM

## CN1CCc2cc(Cl)c(O)cc2C(c2ccccc2)C1 (centres unmarked) [SCH23390, 7-chloro-3-methyl-1-phenyl-1,2,4,5-tetrahydro-3-benzazepin-8-ol]
Human D4.4 receptor
  Ki: 9.7 ± 1.1 µM
[1]
  Ki: 0.887 ± 0.017 µM

## Oc1cc2c(cc1O)C(c1ccccc1)CNCC2 (centres unmarked) [SKF 38393, 1-phenyl-2,3,4,5-tetrahydro-1H-3-benzazepine-7,8-diol]
Human D4.4 receptor
  Ki: 28 ± 13 µM
[10]
  Ki: 4300 ± 1800 nM

## COc1ccccc1N1CCN(CCN(C(=O)C2CCCCC2)c2ccccn2)CC1 [WAY 100635]
[16]; [21]
  Ki: 3000 nM

## OC(c1cc(C(F)(F)F)nc2c(C(F)(F)F)cccc12)C1CCCCN1 (stereo not drawn) [mefloquine, [(R*, S*)-2,8-bis(trifluoromethyl)quinolin-4-yl]-(2-piperidyl)methanol]
[17]
  free mefloquine in brain, translated from brain levels: 100 to 135 nM
[18]; conversion of 1018 μg/L
  Cmax: ~2600 nM
[18]
  Cmax: 1018 µg/L
h5-HT2A receptor [6]; HEK-h5-HT2A and HEK-h5-HT2C transfected cells together, 100 μM (+)mefloquine, Fig 2c
  increase of IP-1 above basal activity in transfected cells: 3–5 fold
